In patent US10189839B2, “Tricyclic imidazole compounds as inhibitors of tryptophan hydroxylase” (ACTELION PHARMACEUTICALS LTD, priority 2013, dated 2019) one finds IC50 data, which are given here for 23 compounds.

The target of this test is T1, full length human TPH1 (Homo sapiens, UniProt P17752).
T1 construct: To generate the enzyme, full length human TPH1 is cloned into the plasmid pET20b(+); made in house; host or cells: E. coli
T1 sequence (P17752 1-444): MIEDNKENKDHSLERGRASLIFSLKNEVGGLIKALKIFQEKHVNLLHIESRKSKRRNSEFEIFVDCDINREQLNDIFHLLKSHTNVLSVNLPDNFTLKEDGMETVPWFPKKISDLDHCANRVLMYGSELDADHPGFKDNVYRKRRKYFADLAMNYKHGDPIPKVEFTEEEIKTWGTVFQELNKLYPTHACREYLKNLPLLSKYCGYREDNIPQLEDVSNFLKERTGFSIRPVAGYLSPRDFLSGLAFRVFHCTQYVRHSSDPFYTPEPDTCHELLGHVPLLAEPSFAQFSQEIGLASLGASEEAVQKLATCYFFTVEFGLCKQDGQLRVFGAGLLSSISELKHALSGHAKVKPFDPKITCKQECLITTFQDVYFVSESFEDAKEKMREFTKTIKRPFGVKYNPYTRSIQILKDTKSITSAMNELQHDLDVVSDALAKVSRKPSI
The experiment in a line: Biochemical in vitro assay using fluorescence readout (TPH1 enzyme activity). The settings on record: Table 1, mean where determined several times. The procedure, abridged: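 IC50 (mean of repeats) derived from 5-hydroxy-L-tryptophan fluorescence at 540 nm (300 nm excitation) relative to vehicle, after perchloric acid stop. Reaction: 60 min, 15° C., pH 7.6 Tris-HCl, 40 μM L-tryptophan, 100 μM 6-methyltetrahydropterine, DTT, catalase, with 40-80 nM purified full-length human TPH1 from E. coli.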
A word on the IC50: it is the concentration that inhibits the measured activity by half. Low values mean greater potency, high ones weaker potency. Compound `O=C(NC1CC1)c1ccc(OCC(=O)N2CCc3nc4n(c3[C@@H]2c2ccc(C3CC3)cc2F)CCCC4)c(Cl)n1` [Example 1.8.6, (S)-6-chloro-N-cyclopropyl-5-(2-(1-(4-cyclopropyl-2-fluorophenyl)-3,4,6,7,8,9-hexahydroimidazo[1,2-a:5,4-c′]dipyridin-2(1H)-yl)-2-oxoethoxy)picolinamide] yielded an IC50 of 9 nM. With `CCc1nc(NS(C)(=O)=O)ncc1OCC(=O)N1CCc2nc3n(c2C1c1ccc(C2CC2)cc1F)CCCC3` (centres unmarked) [Example 1.8.7, N-(5-(2-(1-(4-cyclopropyl-2-fluorophenyl)-3,4,6,7,8,9-hexahydroimidazo[1,2-a:5,4-c′]dipyridin-2(1H)-yl)-2-oxoethoxy)-4-ethylpyrimidin-2-yl)methanesulfonamide], the IC50 stood at 54 nM. For the compound `Cc1ccc(C2c3c(nc4n3CCCC4)CCN2C(=O)COc2ccc(-c3ncco3)nc2Cl)c(F)c1F` (centres unmarked) [Example 1.9.1, 2-((2-chloro-6-(oxazol-2-yl)pyridin-3-yl)oxy)-1-(1-(2,3-difluoro-4-methylphenyl)-3,4,6,7,8,9-hexahydroimida-zo[1,2-a:5,4-c′]dipyridin-2(1H)-yl)ethanone], the IC50 came to 20 nM.

With `Cc1ccc(C2c3c(nc4n3CCCC4)CCN2C(=O)COc2ccc(NS(C)(=O)=O)nc2Cl)c(F)c1F` (centres unmarked) [Example 1.9.2, N-(6-chloro-5-(2-(1-(2,3-difluoro-4-methylphenyl)-3,4,6,7,8,9-hexahydroimidazo[1,2-a:5,4-c′]dipyridin-2(1H)-yl)-2-oxoethoxy)pyridin-2-yl)methanesulfonamide], the IC50 worked out at 26 nM.

Take `Cc1ccc(C2c3c(nc4n3CCCC4)CCN2C(=O)COc2ccc(C(=O)N(C)C3CC3)nc2Cl)c(F)c1F` (centres unmarked) [Example 1.9.3, 6-chloro-N-cyclopropyl-5-(2-(1-(2,3-difluoro-4-methyl-phenyl)-3,4,6,7,8,9-hexahydroimidazo[1,2-a:5,4-c′]di-pyridin-2(1H)-yl)-2-oxoethoxy)-N-methylpicolinamide]: the IC50 is 27 nM. Then `Cc1ccc(C2c3c(nc4n3CCCC4)CCN2C(=O)COc2ccc(N3CCN(C)CC3)nc2Cl)c(F)c1F` (centres unmarked) [Example 1.9.4, 2-((2-chloro-6-(4-methylpiperazin-1-yl)pyridin-3-yl)oxy)-1-(1-(2,3-difluoro-4-methylphenyl)-3,4,6,7,8,9-hexahydroimidazo[1,2-a:5,4-c′]dipyridin-2(1H)-yl)ethanone], with 18 nM. For the compound `Cc1ccc(C2c3c(nc4n3CCCC4)CCN2C(=O)COc2ccc(C(F)(F)F)cc2Cl)c(F)c1F` (centres unmarked) [Example 1.9.5, 2-(2-chloro-4-(trifluoromethyl)phenoxy)-1-(1-(2,3-difluoro-4-methylphenyl)-3,4,6,7,8,9-hexahydroimidazo[1,2-a:5,4-c′]dipyridin-2(1H)-yl)ethanone], the IC50 was determined as 87 nM. For `Cc1ccc(C2c3c(nc4n3CCCC4)CCN2C(=O)COc2ccc(N3CCCS3(=O)=O)nc2Cl)c(F)c1F` (centres unmarked) [Example 1.9.6, 2-((2-chloro-6-(1,1-dioxidoisothiazolidin-2-yl)pyridin-3-yl)oxy)-1-(1-(2,3-difluoro-4-methylphenyl)-3,4,6,7,8,9-hexahydroimidazo[1,2-a:5,4-c′]dipyridin-2(1H)-yl)ethanone] the value was 9 nM. `CCc1nc(NS(C)(=O)=O)ccc1OCC(=O)N1CCc2nc3n(c2C1c1ccc(C)c(F)c1F)CCCC3` (centres unmarked) [Example 1.9.7, N-(5-(2-(1-(2,3-difluoro-4-methylphenyl)-3,4,6,7,8,9-hexahydroimidazo[1,2-a:5,4-c′]dipyridin-2(1H)-yl)-2-oxoethoxy)-6-ethylpyridin-2-yl)methanesulfonamide]: the IC50 was found to be 8 nM. The compound `Cc1ccc(C2c3c(nc4n3CCCC4)CCN2C(=O)COc2ccc(C(=O)NC3CC3)nc2Cl)c(F)c1F` (centres unmarked) [Example 1.9.8, 6-chloro-N-cyclopropyl-5-(2-(1-(2,3-difluoro-4-methylphenyl)-3,4,6,7,8,9-hexahydroimidazo[1,2-a:5,4-c′]dipyridin-2(1H)-yl)-2-oxoethoxy)picolinamide] returned an IC50 of 16 nM. Then `CCc1nc(NS(C)(=O)=O)ncc1OCC(=O)N1CCc2nc3n(c2C1c1ccc(C)c(F)c1F)CCCC3` (centres unmarked) [Example 1.9.9, N-(5-(2-(1-(2,3-difluoro-4-methylphenyl)-3,4,6,7,8,9-hexahydroimidazo[1,2-a:5,4-c′]dipyridin-2(1H)-yl)-2-oxoethoxy)-4-ethylpyrimidin-2-yl)methanesulfonamide], with 58 nM; and `CCc1nc(C(=O)NC2CC2)ccc1OCC(=O)N1CCc2nc3n(c2C1c1ccc(C)c(F)c1F)CCCC3` (centres unmarked) [Example 1.9.10, N-cyclopropyl-5-(2-(1-(2,3-difluoro-4-methylphenyl)-3,4,6,7,8,9-hexahydroimidazo[1,2-a:5,4-c′]dipyridin-2(1H)-yl)-2-oxoethoxy)-6-ethylpicolinamide], with 9 nM. For `Cc1nc(C)c(C2c3c(nc4n3CCCC4)CCN2C(=O)COc2ccc(NS(C)(=O)=O)nc2Cl)s1` (centres unmarked) [Example 1.10.1, N-(6-chloro-5-(2-(1-(2,4-dimethylthiazol-5-yl)-3,4,6,7,8,9-hexahydroimidazo[1,2-a:5,4-c′]dipyridin-2(1H)-yl)-2-oxoethoxy)pyridin-2-yl)methanesulfonamide] the value was 12 nM. Take `Cc1nc(C)c(C2c3c(nc4n3CCCC4)CCN2C(=O)COc2ccc(C(=O)N(C)C3CC3)nc2Cl)s1` (centres unmarked) [Example 1.10.2, 6-chloro-N-cyclopropyl-5-(2-(1-(2,4-dimethylthiazol-5-yl)-3,4,6,7,8,9-hexahydroimidazo[1,2-a:5,4-c′]dipyridin-2(1H)-yl)-2-oxoethoxy)-N-methylpicolinamide]: 82 nM corresponded to half-maximal inhibition (IC50).

For the compound `Cc1nc(C)c(C2c3c(nc4n3CCCC4)CCN2C(=O)COc2ccc(-c3ncco3)nc2Cl)s1` (centres unmarked) [Example 1.10.3, 2-((2-chloro-6-(oxazol-2-yl)pyridin-3-yl)oxy)-1-(1-(2,4-dimethylthiazol-5-yl)-3,4,6,7,8,9-hexahydroimi-dazo[1,2-a:5,4-c′]dipyridin-2(1H)-yl)ethanone], half-maximal inhibition (IC50) was put at 16 nM. For `CNC(=O)c1ccc(OCC(=O)N2CCc3nc4n(c3C2c2sc(C)nc2C)CCCC4)c(Cl)n1` (centres unmarked) [Example 1.10.4, 6-chloro-5-(2-(1-(2,4-dimethylthiazol-5-yl)-3,4,6,7,8,9-hexahydroimidazo[1,2-a:5,4-c′]dipyridin-2(1H)-yl)-2-oxoethoxy)-N-methylpicolinamide] the value was 36 nM. Then `Cc1nc(C)c(C2c3c(nc4n3CCCC4)CCN2C(=O)COc2ccc(C(=O)N(C)C)nc2Cl)s1` (centres unmarked) [Example 1.10.5, 6-chloro-5-(2-(1-(2,4-dimethylthiazol-5-yl)-3,4,6,7,8,9-hexahydroimidazo[1,2-a:5,4-c′]dipyridin-2(1H)-yl)-2-oxoethoxy)-N,N-dimethylpicolinamide], with 85 nM. Consider `Cc1nc(C)c(C2c3c(nc4n3CCCC4)CCN2C(=O)COc2ccc(C#N)nc2Cl)s1` (centres unmarked) [Example 1.10.6, 6-chloro-5-(2-(1-(2,4-dimethylthiazol-5-yl)-3,4,6,7,8,9-hexahydroimidazo[1,2-a:5,4-c′]dipyridin-2(1H)-yl)-2-oxoethoxy)picolinonitrile], for which it took 77 nM to reach half-maximal inhibition (IC50). Then `Cc1nc(C)c(C2c3c(nc4n3CCCC4)CCN2C(=O)COc2ccc(C(F)(F)F)nc2Cl)s1` (centres unmarked) [Example 1.10.7, 2-((2-chloro-6-(trifluoromethyl)pyridin-3-yl)oxy)-1-(1-(2,4-dimethylthiazol-5-yl)-3,4,6,7,8,9-hexahydroimi-dazo[1,2-a:5,4-c′]dipyridin-2(1H)-yl)ethanone], with 177 nM; and `Cc1nc(C)c(C2c3c(nc4n3CCCC4)CCN2C(=O)COc2ccc(C3CC3)nc2Cl)s1` (centres unmarked) [Example 1.10.8, 2-((2-chloro-6-cyclopropylpyridin-3-yl)oxy)-1-(1-(2,4-dimethylthiazol-5-yl)-3,4,6,7,8,9-hexahydroimi-dazo[1,2-a:5,4-c′]dipyridin-2(1H)-yl)ethanone], with 33 nM; and `Cc1nc(C)c(C2c3c(nc4n3CCCC4)CCN2C(=O)COc2ccc(N3CCN(C)CC3)nc2Cl)s1` (centres unmarked) [Example 1.10.9, 2-((2-chloro-6-(4-methylpiperazin-1-yl)pyridin-3-yl)oxy)-1-(1-(2,4-dimethylthiazol-5-yl)-3,4,6,7,8,9-hexahydroimidazo[1,2-a:5,4-c′]dipyridin-2(1H)-yl)ethanone], with 17 nM. `Cc1nc(C)c(C2c3c(nc4n3CCCC4)CCN2C(=O)COc2ccc(C#N)cc2Cl)s1` (centres unmarked) [Example 1.10.10, 3-chloro-4-(2-(1-(2,4-dimethylthiazol-5-yl)-3,4,6,7,8,9-hexahydroimidazo[1,2-a:5,4-c′]dipyridin-2(1H)-yl)-2-oxoethoxy)benzonitrile] yielded an IC50 of 207 nM. Then `Cc1nc(C)c(C2c3c(nc4n3CCCC4)CCN2C(=O)COc2ccc(C(F)(F)F)cc2Cl)s1` (centres unmarked) [Example 1.10.11, 2-(2-chloro-4-(trifluoromethyl)phenoxy)-1-(1-(2,4-dimethylthiazol-5-yl)-3,4,6,7,8,9-hexahydroimi-dazo[1,2-a:5,4-c′]dipyridin-2(1H)-yl)ethanone], with 132 nM.
